Assay results published in patent US7582645B2, “Pyrimidine derivatives for treatment of hyperproliferative disorders” (Bayer Pharmaceuticals Corporation, priority 2003, dated 2009).
Where a name gives a salt, the structure may show the parent alone.

What follows are compounds tested on HCT116 cells (assay: HCT116 cytotoxic activity assay (Alamar Blue, 72 h)). Settings: Homo sapiens, HCT-116, 72 h compound exposure, less than or equal to 500 nM.
Format: cell-based
Method: Representative compounds of this invention were tested for cytotoxicity using the above-described assay procedure with the following results: […]

Q: How did the IC50 turn out when `Nc1nc(Nc2ccc(Oc3ccnc(C(F)(F)F)c3)cc2)cc(-c2ccccc2C(F)(F)F)n1` [Example 155, 6-[2-(trifluoromethyl)phenyl]-N4*-(4-{[2-(trifluoromethyl)pyridin-4-yl]oxy}phenyl)pyrimidine-2,4-diamine] was run?
A: ≤ 500 nM

Q: For `CCc1ccccc1-c1cc(Nc2ccc(Oc3ccnc(C(F)(F)F)c3)cc2)nc(N)n1` [Example 156, 6-(2-ethylphenyl)-N4*-(4-{[2-(trifluoromethyl)pyridin-4-yl]oxy}phenyl) pyrimidine-2,4-diamine], which IC50 is on record?
A: ≤ 500 nM

Q: For `CCOc1ccccc1-c1cc(Nc2ccc(Oc3ccnc(C(F)(F)F)c3)cc2)nc(N)n1` [Example 157, 6-(2-ethoxyphenyl)-N4*-(4-{[2-(trifluoromethyl)pyridin-4-yl]oxy}phenyl) pyrimidine-2,4-diamine], which IC50 is on record?
A: ≤ 500 nM

Q: For `Cc1ccc(F)c(-c2cc(Nc3ccc(Oc4ccnc(C(F)(F)F)c4)cc3)nc(N)n2)c1` [Example 158, 6-(2-fluoro-5-methylphenyl)-N4*-(4-{[2-(trifluoromethyl)pyridin-4-yl]oxy}phenyl)pyrimidine-2,4-diamine], which IC50 is on record?
A: ≤ 500 nM

Q: With `Nc1nc(Nc2ccc(Oc3ccnc(C(F)(F)F)c3)cc2)cc(-c2cccc(F)c2F)n1` [Example 159, 6-(2,3-difluorophenyl)-N4*-(4-{[2-(trifluoromethyl)pyridin-4-yl]oxy}phenyl)pyrimidine-2,4-diamine] as the compound, how does the IC50 read?
A: ≤ 500 nM

Q: For `Nc1nc(Nc2ccc(Oc3ccnc(C(F)(F)F)c3)cc2)cc(-c2cc(F)ccc2F)n1` [Example 160, 6-(2,5-difluorophenyl)-N4*-(4-{[2-(trifluoromethyl)pyridin-4-yl]oxy}phenyl)pyrimidine-2,4-diamine], which IC50 is on record?
A: ≤ 500 nM

Q: For `Nc1nc(Nc2ccc(Oc3ccnc(C(F)(F)F)c3)cc2)cc(-c2ccccc2OC(F)(F)F)n1` [Example 161, 6-[2-(trifluoromethoxy)phenyl]-N4*-(4-{[2-(trifluoromethyl)pyridin-4-yl]oxy}phenyl)pyrimidine-2,4-diamine], which IC50 is on record?
A: ≤ 500 nM

Q: Which IC50 does the source give for `CC(C)c1ccccc1-c1cc(Nc2ccc(Oc3ccnc(C(F)(F)F)c3)cc2)nc(N)n1` [Example 162, 6-(2-isopropylphenyl)-N4*- (4-{[2-(trifluoromethyl)pyridin-4-yl]oxy}phenyl) pyrimidine-2,4-diamine] here?
A: ≤ 500 nM

Q: With `CCc1ccccc1-c1cc(Nc2ccc(Oc3ccnc(CN)c3)cc2)nc(N)n1` [Example 163, N4*-(4-{[2-(aminomethyl)pyridin-4-yl]oxy}phenyl)-6-(2-ethylphenyl)pyrimidine-2,4-diamine] as the compound, how does the IC50 read?
A: ≤ 500 nM

Q: With `Nc1ccc(-c2cc(Nc3ccc(Oc4ccnc(C(F)(F)F)c4)cc3)nc(N)n2)cc1` [Example 164, 6-(4-aminophenyl)-N4*-(4-{[2-(trifluoromethyl)pyridin-4-yl]oxy}phenyl) pyrimidine-2,4-diamine hydrochloride] as the compound, how does the IC50 read?
A: ≤ 500 nM

Q: With `COc1cc(-c2cc(Nc3ccc(Oc4ccnc(C(F)(F)F)c4)cc3)nc(N)n2)ccc1O` [Example 166, 4-{2-amino-6-[(4-{[2-(trifluoromethyl)pyridin-4-yl]oxy}phenyl)amino]pyrimidin-4-yl}-2-methoxyphenol] as the compound, how does the IC50 read?
A: ≤ 500 nM

Q: With `Nc1nc(Nc2ccc(Oc3ccnc(C(F)(F)F)c3)cc2)cc(-c2cccc(O)c2)n1` [Example 167, 3-{2-amino-6-[(4-{[2-(trifluoromethyl)pyridin-4-yl]oxy}phenyl)amino]pyrimidin-4-yl}phenol] as the compound, how does the IC50 read?
A: ≤ 500 nM

Q: For `COc1ccc(-c2cc(Nc3ccc(Oc4ccnc(C(F)(F)F)c4)cc3)nc(N)n2)cc1N` [Example 168, 6-(3-amino-4-methoxyphenyl)-N4*-(4-{[2-(trifluoromethyl)pyridin-4-yl]oxy}phenyl) pyrimidine-2,4-diamine], which IC50 is on record?
A: ≤ 500 nM

Q: Which IC50 does the source give for `Nc1cccc(-c2cc(Nc3ccc(Oc4ccnc(C(F)(F)F)c4)cc3)nc(N)n2)c1` [Example 170, 6-(3-aminophenyl)-N4*-(4-{[2-(trifluoromethyl)pyridin-4-yl]oxy}phenyl) pyrimidine-2,4-diamine hydrochloride] here?
A: ≤ 500 nM
